Ends that are not written are not given here. * marks the point of attachment. ClAc = O=C(CCl)*
B1: chemically synthesized integrin binding peptide (SEQ ID NO: 126) (peptide)
peptide: CEPRGDNYRK(ClAc)GGSKKK
notes: Immobilized on a CM5 chip by amine coupling; also called CEPRGDNYRXGGSKKK

Assays:
[1] = test system: cell-free peptide synthesis system derived from Escherichia coli; test: Cell-free biosynthesis of the integrin binding peptide fusion protein with N-terminal tag, 1 hour reaction, amount measured by ELISA; format: biochemical; conditions: fusion protein SEQ ID NO: 5; for Biosynthesis amount of fusion protein: relative value, control example without tag = 1, 37° C. for 1 hour, average of two measurements
From the text: In the cell-free peptide synthesis system derived from Escherichia coli, the effect of the VKKX tag on the biosynthesis amount of the polypeptide was examined. As a polypeptide to be biosynthesized, an integrin binding peptide containing cysteine and chloroacetyl lysine was selected. In this polypeptide, a thiol group of cysteine and a chloroacetyl group of chloroacetyl lysine spontaneously form a thioether bond to become a cyclic polypeptide.
A fusion protein in which an integrin binding peptide, a Myc tag, and a HiBiT tag were linked in this order was designed. As a spacer, Gly-Gly-Ser was inserted between the integrin binding peptide and the Myc tag and between the Myc tag and the HiBiT tag. The amino acid sequence of this fusion protein is SEQ ID NO: 5, and the base sequence encoding this fusion protein is SEQ ID NO: 6. In SEQ ID NO: 5, the integrin binding peptide ranges to the amino acid at the twelfth position (that is, alanine) from an N-terminal, and the amino acid at eleventh position from the N-terminal is chloroacetyl lysine. The triplet TAG at the positions 31 to 33 from the 5′ terminal of the base sequence set forth in SEQ ID NO: 6 was assigned to the codon of chloroacetyl lysine. The end of the base sequence set forth in SEQ ID NO: 6 is the stop codon TAA.
A base sequence encoding a tagged fusion protein in which methionine, a VKKX tag (any of SEQ ID nOs: 7 to 52), and a fusion protein (SEQ ID NO: 5) were linked in this order was designed. In this base sequence, a base sequence (any of SEQ ID nOs: 53 to 98) encoding a VKKX tag is arranged immediately after the start codon ATG, and a base sequence encoding a fusion protein immediately after the base sequence (SEQ ID NO: 6) encoding the VKKX tag is arranged.
As a control example for evaluating the effect of the VKKX tag, a base sequence in which a base sequence (SEQ ID NO: 6) encoding a fusion protein arranged immediately after the start codon ATG was designed.
In order to translate chloroacetyl lysine which is an unnatural amino acid, a tRNA in which the anticodon was CUA and paired with the UAG codon of mRNA was prepared. This tRNA was aminoacylated with an N-chloroacetyl lysine hosphoro 2′ deoxyribocytidylylriboadenosine (pdCpA) ester. This aminoacyl tRNA is referred to as an Aminoacyl tRNA (1).
(§1) The cell-free biosynthesis of the polypeptide was carried out in a translation solution containing a template DNA, PUREfrex 2.0 (GeneFrontier, PF201-0.25-5), and Aminoacyl tRNA (1). 1.25 μL (62.5 ng) of the template DNA prepared to 50 ng/μL, 2.5 μL of PUREfrex 2.0 Solution I, 0.25 μL of Solution II, 0.5 μL of Solution III, and 0.5 μL of Aminoacyl tRNA (1) were mixed and mixture was subjected to a reaction at 37° ° C. for 1 hour.
The amount of the biosynthesized polypeptide was measured by ELISA. 50 ng of Recombinant Human Integrin αVβ3 (R&D systems, 3050-AV-050) was immobilized in each well of a 96-well plate and blocked with Blocker Casein in PBS (Thermo, 37528), and then a cell-free biosynthesis solution diluted with Can Get Signal Immunoreaction Enhancer Solution I (TOYOBO, NKB-101) containing 5 mmol/L MgCl2 was added thereto, and the mixture was subjected to a reaction at room temperature for 3 hours. After washing with 5 mmol/L MgCl2/0.05% Tween 20-containing phosphate buffered saline (PBS), an anti-Myc antibody (Cell Signaling, 14038S) diluted with Can Get Signal Immunoreaction Enhancer Solution II (TOYOBO, NKB-101) was added thereto, and the mixture was subjected to a reaction at room temperature for 2 hours. After washing with PBS containing 5 mmol/L MgCl2/0.05% Tween 20, Super Signal ELISA Femto Substrate (Thermo, 37075) was added thereto, and the luminescence was measured. The amount of the fusion protein in the cell-free biosynthesis solution was calculated based on a calibration curve created from the fusion protein having a known concentration. The luminescence measurement was performed twice, and the average value of the amounts of the fusion protein was calculated. […]

[2] = test system: cell-free peptide synthesis system derived from Escherichia coli; test: Cell-free biosynthesis of the integrin binding peptide fusion protein with tag, reaction time 10 minutes, ELISA; format: biochemical; conditions: relative value, control without tag = 1; reaction time 10 minutes; fusion protein SEQ ID NO: 5; SKIK encoded by SEQ ID NO: 110
Procedure: as §1
The amount of the biosynthesized polypeptide was measured by ELISA. 50 ng of Recombinant Human Integrin αVβ3 (R&D systems, 3050-AV-050) was immobilized in each well of a 96-well plate and blocked with Blocker Casein in PBS (Thermo, 37528), and then a cell-free biosynthesis solution diluted with Can Get Signal Immunoreaction Enhancer Solution I (TOYOBO, NKB-101) containing 5 mmol/L MgCl2 was added thereto, and the mixture was subjected to a reaction at room temperature for 3 hours. After washing with 5 mmol/L MgCl2/0.05% Tween 20-containing phosphate buffered saline (PBS), an anti-Myc antibody (Cell Signaling, 14038S) diluted with Can Get Signal Immunoreaction Enhancer Solution II (TOYOBO, NKB-101) was added thereto, and the mixture was subjected to a reaction at room temperature for 2 hours. After washing with PBS containing 5 mmol/L MgCl2/0.05% Tween 20, Super Signal ELISA Femto Substrate (Thermo, 37075) was added thereto, and the luminescence was measured. The amount of the fusion protein in the cell-free biosynthesis solution was calculated based on a calibration curve created from the fusion protein having a known concentration. The luminescence measurement was performed twice, and the average value of the amounts of the fusion protein was calculated. Table 2-1 and Table 2-2 show relative values of the biosynthesis amounts of respective fusion proteins in a case where the amount of the fusion protein of the control example was set to the reference value 1.
As a comparative control, a SKIK tag represented by SEQ ID NO: 107 was selected. The polypeptide to be biosynthesized is the fusion protein containing the integrin binding peptide, as in Example 1.
Using a template DNA including DNA sequences (SEQ ID NOs: 73 to 98) encoding VKKX tags represented by SEQ ID NOs: 27 to 52 produced in Example 1, and a DNA sequence (SEQ ID NO: 110) encoding a SKIK tag represented by SEQ ID NO: 107 produced in Example 2, the biosynthesis reaction was performed in the same manner as in Example 1 by setting the reaction time to 10 minutes. In the same manner in Example 1, the fusion protein was expressed by the cell-free peptide synthesis system and quantified by ELISA. The measurement was performed twice, and the average value of the amounts of the fusion protein was calculated. […] As control example used in Example 1, the control example of the reference value 1 has a form in which the base sequence (SEQ ID NO: 6) encoding the fusion protein is arranged immediately after the start codon ATG.

[3] = target: T1, Recombinant Human Integrin αVβ3 (R&D systems, 3050-AV-050) (human, UniProt P06756 31-992; P05106 27-718); test: SPR (Biacore T-100): peptide immobilized on CM5 chip, integrin αVβ3 injected at 10, 30, 100, 300 nmol/L, 5 mmol/L MgCl2
T1 construct: Bought heterodimer
T1 sequence (P06756 31-992 limits assumed, chain 1 of 2): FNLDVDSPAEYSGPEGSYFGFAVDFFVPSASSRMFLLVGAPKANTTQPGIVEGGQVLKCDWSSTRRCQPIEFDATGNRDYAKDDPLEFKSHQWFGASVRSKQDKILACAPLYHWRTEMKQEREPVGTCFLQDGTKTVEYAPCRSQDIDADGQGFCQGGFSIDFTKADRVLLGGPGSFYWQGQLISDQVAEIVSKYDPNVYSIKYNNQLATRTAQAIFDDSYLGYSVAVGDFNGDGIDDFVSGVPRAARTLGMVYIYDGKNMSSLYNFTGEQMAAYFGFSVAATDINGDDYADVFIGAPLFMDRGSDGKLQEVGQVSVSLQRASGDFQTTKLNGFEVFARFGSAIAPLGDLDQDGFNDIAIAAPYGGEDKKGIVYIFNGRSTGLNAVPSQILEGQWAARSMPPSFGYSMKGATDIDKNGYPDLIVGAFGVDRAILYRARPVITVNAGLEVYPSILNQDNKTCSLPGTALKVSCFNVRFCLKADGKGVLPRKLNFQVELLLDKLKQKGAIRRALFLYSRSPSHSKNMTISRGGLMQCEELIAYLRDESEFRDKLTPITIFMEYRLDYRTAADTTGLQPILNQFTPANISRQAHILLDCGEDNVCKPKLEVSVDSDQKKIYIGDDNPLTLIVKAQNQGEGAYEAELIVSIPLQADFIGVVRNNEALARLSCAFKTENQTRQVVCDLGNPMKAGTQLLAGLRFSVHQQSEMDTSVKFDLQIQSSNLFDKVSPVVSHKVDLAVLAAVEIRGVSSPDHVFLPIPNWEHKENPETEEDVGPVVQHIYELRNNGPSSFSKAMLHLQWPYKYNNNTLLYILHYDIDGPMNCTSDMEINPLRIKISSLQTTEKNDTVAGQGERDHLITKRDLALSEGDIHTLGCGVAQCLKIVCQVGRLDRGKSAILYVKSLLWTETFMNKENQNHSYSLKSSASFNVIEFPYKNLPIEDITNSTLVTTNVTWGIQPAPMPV
T1 sequence (P05106 27-718 limits assumed, chain 2 of 2): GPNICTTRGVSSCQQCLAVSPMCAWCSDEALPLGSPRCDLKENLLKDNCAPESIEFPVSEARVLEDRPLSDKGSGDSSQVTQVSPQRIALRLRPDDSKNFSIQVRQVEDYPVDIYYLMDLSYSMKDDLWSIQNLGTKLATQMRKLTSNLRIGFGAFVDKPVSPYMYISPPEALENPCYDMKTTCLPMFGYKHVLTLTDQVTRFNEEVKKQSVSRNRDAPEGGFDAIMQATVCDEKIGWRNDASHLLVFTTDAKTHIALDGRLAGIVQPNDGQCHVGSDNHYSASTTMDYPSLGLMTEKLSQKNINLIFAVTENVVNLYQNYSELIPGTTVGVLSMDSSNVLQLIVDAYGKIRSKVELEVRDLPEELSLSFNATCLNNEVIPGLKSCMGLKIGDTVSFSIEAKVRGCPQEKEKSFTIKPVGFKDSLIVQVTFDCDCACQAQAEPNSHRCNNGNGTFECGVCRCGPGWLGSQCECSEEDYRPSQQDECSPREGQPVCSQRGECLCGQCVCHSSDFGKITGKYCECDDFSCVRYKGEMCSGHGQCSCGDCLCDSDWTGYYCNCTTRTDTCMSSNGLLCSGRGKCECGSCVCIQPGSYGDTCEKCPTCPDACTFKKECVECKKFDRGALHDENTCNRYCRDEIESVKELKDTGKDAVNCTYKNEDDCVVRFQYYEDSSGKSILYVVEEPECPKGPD
Procedure: In addition, as a comparative control, the binding ability (Kd value) of the integrin binding peptide was measured by the SPR method. An integrin binding peptide (SEQ ID NO: 126) was chemically synthesized and immobilized on a CM5 chip (Cytiva, BR100530) by an amine coupling method. The binding ability of the immobilized integrin binding peptide to Recombinant Human Integrin αVβ3 (R&D systems, 3050-AV-050) was measured using Biacore T-100 (Cytiva). As the measurement buffer, an HBS-N buffer (Cytiva, BR100670) in which MgCl₂ was added such that the final concentration was 5 mmol/L, and integrin was added thereto at a concentration of 10, 30, 100, or 300 nmol/L for 10 minutes. The CM5 chip was regenerated and used by repeating the addition of 500 mmol/L EDTA for 10 minutes twice.

Molecule | Biosynthesis amount of fusion protein [1] | Biosynthesis amount of fusion protein [2] | increase of biosynthesis amount of the fusion protein ([1]; Example 1, versus control without tag, 1 hour) | Kd [3]
SEQ ID NO: 41: VKKX tag, amino acid sequence VKKTKTKDT (VKKX Tag) | 6.27 | 28.80 |  | 
SEQ ID NO: 42: VKKX tag, amino acid sequence VKKTKTKDD (VKKX Tag) | 5.35 | 14.95 |  | 
SEQ ID NO: 43: VKKX tag, amino acid sequence VKKTKTTKK (VKKX Tag) | 9.45 | 23.35 |  | 
SEQ ID NO: 44: VKKX tag, amino acid sequence VKKTKTTKT (VKKX Tag) | 7.83 | 7.18 |  | 
SEQ ID NO: 45: VKKX tag, amino acid sequence VKKTKTTKD (VKKX Tag) | 7.83 | 10.61 |  | 
SEQ ID NO: 46: VKKX tag, amino acid sequence VKKTKTKKTK (VKKX Tag) | 9.94 | 23.47 |  | 
SEQ ID NO: 47: VKKX tag, amino acid sequence VKKTKTKKDK (VKKX Tag) | 8.90 | 15.53 |  | 
SEQ ID NO: 48: VKKX tag, amino acid sequence VKKTKTKTKK (VKKX Tag) | 10.47 | 36.08 |  | 
SEQ ID NO: 49: VKKX tag, amino acid sequence VKKTKTKTTK (VKKX Tag) | 7.44 | 8.75 |  | 
SEQ ID NO: 50: VKKX tag, amino acid sequence VKKTKTKDKK (VKKX Tag) | 7.78 | 35.42 |  | 
SEQ ID NO: 51: VKKX tag, amino acid sequence VKKTKTTTKK (VKKX Tag) | 6.29 | 15.28 |  | 
SEQ ID NO: 52: VKKX tag, amino acid sequence VKKTKTKTDTT (VKKX Tag) | 4.33 | 9.15 | 4.3 times | 
B1 |  |  |  | 7.6 nM
